Where “and” joins values, the source holds several entries; their conditions need not be identical. Equal values may be shown once.
Test system: adult subjects with Major Depressive Disorder
Assay: Phase 3 open-label 1-year study: HAM-D total score, response and remission
Type: in vivo, human
From the text: Secondary Objective: To assess the need for re-treatment with Compound (1) following initial treatment in adults with MDD currently experiencing an MDE over a 1-year period, and to assess the response of initial treatment and re-treatment(s) with Compound (1) following an initial 2-week treatment period in adults with MDD currently experiencing an MDE over a 1-year period.
Secondary Endpoints: The need for re-treatment with Compound (1) as assessed by: time to first re-treatment (Kaplan-Meier curves), number of subjects achieving the requirements for re-treatment, number of re-treatment cycles for each subject, the response of initial treatment and/or re-treatment as assessed by: change from baseline in the 17-item Hamilton Rating Scale for Depression (HAM-D) total score at the end of each 14-day treatment (initial and/or re-treatment) period, HAM-D response at the end of each 14-day treatment (initial and/or re-treatment) period, defined as a ≥50% reduction in HAM-D score from baseline, HAM-D remission at the end of each 14-day treatment (initial and/or re-treatment) period, defined as HAM-D total score≤7, Clinical Global Impression-Improvement (CGI-I) response, defined as “much improved” or “very much improved”, at the end of each 14-day treatment (initial and/or re-treatment) period, change from baseline in Clinical Global Impression-Severity (CGI-S) score at the end of each 14-day treatment (initial and/or re-treatment) period.
Study Population: Subjects were 18-75 years old, diagnosed with major depressive disorder (MDD) with a MADRS total score of ≥28 and a HAM-D total score of ≥20 at Screening and Day 1 (prior to dosing).
Treatment Groups: The 30 mg and 50 mg dose groups were separated by time of enrollment. The study is comprised of two cohorts: one with Compound (1) 30 mg as a starting dose (30 mg Cohort: n=725), an initial cohort with Compound (1) 50 mg as a starting dose (50 mg Cohort: n=199). A patient receiving Compound (1) 30 mg could be dose reduced to 20 mg and patients receiving Compound (1) 50 mg could be dose reduced to 40 mg (based on tolerability). In all cohorts, Compound (1) is self-administered by patients as an oral therapy once nightly with food for 14 days.
Eligible subjects were given Compound (1)—to be taken at home in the evening with meal.
The cohorts pertaining to the different doses that the subjects received were defined as following: • 50 mg cohort: This cohort includes subjects who have initiated treatment with 50 mg and received re-treatment with 50 mg only. • 30 mg cohort: This cohort includes subjects who have initiated treatment with 30 mg regardless of the dose they have received in re-treatments. • Low dose cohort: This cohort includes subjects who have initiated treatment with 30 mg and received re-treatment with 30 mg only. • Dose switch cohort: This cohort includes subjects who have received initial treatment with 30 mg and at least one subsequent re-treatment with 50 mg. • Study Period X: starts on the date of the first dose of Compound (1) in cycle X and goes up to one day prior to the first dose of the next cycle. In some embodiments, X is any number from 1 to 5. • Treatment Period X: starts on the date of the first dose of Compound (1) in cycle X and goes up to one day after the last dose in cycle X. In some embodiments, X is any number from 1 to 5. • Treatment Cycle X: starts on the date of the first dose of Compound (1) in cycle X and goes up to 14 days after the last dose in cycle X. The treatment cycles may be denoted as C1-C5. • Observation period X: starts the day after Treatment Cycle X ends and goes up to one day prior to the start of next treatment cycle. In some embodiments, X is any number from 1 to 5.
Analysis Sets: The safety set was defined as all subjects who were administered study drug. The period-specific safety set includes subjects in the safety set who were administered study drug in the corresponding treatment cycle. […]

[1] = baseline HAM-D score ≥24, Study Period 1, 50 mg Cohort (N = 127), Day 28
[2] = baseline HAM-D score ≥24, Study Period 1, 50 mg Cohort (N = 127), Day 70
[3] = baseline HAM-D score ≥24, Study Period 1, 50 mg Cohort (N = 127), Day 126
[4] = baseline HAM-D score ≥26, Study Period 1, 30 mg Cohort (N = 327), Day 8
[5] = baseline HAM-D score ≥26, Study Period 1, 30 mg Cohort (N = 327), Day 15
[6] = baseline HAM-D score ≥26, Study Period 1, 30 mg Cohort (N = 327), Day 28
[7] = baseline HAM-D score ≥26, Study Period 1, 30 mg Cohort (N = 327), Day 70
[8] = baseline HAM-D score ≥26, Study Period 1, 30 mg Cohort (N = 327), Day 126
[9] = baseline HAM-D score ≥26, Study Period 1, 50 mg Cohort (N = 85), Day 8
[10] = baseline HAM-D score ≥26, Study Period 1, 50 mg Cohort (N = 85), Day 15
[11] = baseline HAM-D score ≥26, Study Period 1, 50 mg Cohort (N = 85), Day 28
[12] = baseline HAM-D score ≥26, Study Period 1, 50 mg Cohort (N = 85), Day 70
[13] = baseline HAM-D score ≥26, Study Period 1, 50 mg Cohort (N = 85), Day 126

C[C@@]1(O)CC[C@H]2[C@H](CC[C@@H]3[C@@H]2CC[C@]2(C)[C@@H](C(=O)Cn4cc(C#N)cn4)CC[C@@H]32)C1 [Compound (1), 1-(2-((3R,5R,8R,9R,10S,13S,14S,17S)-3-hydroxy-3,13-dimethylhexadecahydro-1H-cyclopenta[a]phenanthren-17-yl)-2-oxoethyl)-1H-pyrazole-4-carbonitrile]
HAM-D Response [1]: 74/120 (61.7%) | HAM-D total score, Mean % CFB ± SD [1]: −58.0 ± 25.97% | HAM-D total score, Mean CFB ± SD [1]: −15.7 ± 7.17 | HAM-D Remission [2]: 26/79 (32.9%) | HAM-D Response [2]: 43/79 (54.4%) | HAM-D total score, Mean % CFB ± SD [2]: −53.0 ± 28.53% | HAM-D total score, Mean CFB ± SD [2]: −14.4 ± 7.93 | HAM-D Remission [3]: 13/17 (76.5%) | HAM-D Response [3]: 14/17 (82.4%) | HAM-D total score, Mean % CFB ± SD [3]: −74.8 ± 27.94% | HAM-D total score, Mean CFB ± SD [3]: −19.9 ± 8.10 | HAM-D Response [4]: 138/319 (43.3%) | HAM-D total score, Mean % CFB ± SD [4]: −43.7 ± 25.84% | HAM-D total score, Mean CFB ± SD [4]: −12.6 ± 7.44 | HAM-D Response [5]: 220 (71.4%) and 220/308 (71.4%) | HAM-D total score, Mean % CFB ± SD [5]: −60.6 ± 26.28% | HAM-D total score, Mean CFB ± SD [5]: −17.6 ± 7.77 | HAM-D Response [6]: 184/305 (60.3%) | HAM-D total score, Mean % CFB ± SD [6]: −55.6 ± 28.46% | HAM-D total score, Mean CFB ± SD [6]: −16.2 ± 8.48 | HAM-D Response [7]: 87/170 (51.2%) | HAM-D total score, Mean % CFB ± SD [7]: −49.8 ± 32.15% | HAM-D total score, Mean CFB ± SD [7]: −14.7 ± 9.65 | HAM-D Response [8]: 60/82 (73.2%) | HAM-D total score, Mean % CFB ± SD [8]: −65.6 ± 28.15% | HAM-D total score, Mean CFB ± SD [8]: −19.1 ± 8.11 | HAM-D Remission [9]: 13/82 (15.9%) | HAM-D Response [9]: 43/82 (52.4%) | HAM-D total score, Mean % CFB ± SD [9]: −49.6 ± 21.15% | HAM-D total score, Mean CFB ± SD [9]: −14.0 ± 6.05 | HAM-D Remission [10]: 27 (33.8%) and 27/80 (33.8%) | HAM-D Response [10]: 64 (80.0%) and 64/80 (80.0%) | HAM-D total score, Mean % CFB ± SD [10]: −64.3 ± 20.17% | HAM-D total score, Mean CFB ± SD [10]: −18.2 ± 5.89 | HAM-D Remission [11]: 26/80 (32.5%) | HAM-D Response [11]: 51/80 (63.8%) | HAM-D total score, Mean % CFB ± SD [11]: −58.5 ± 24.24% | HAM-D total score, Mean CFB ± SD [11]: −16.6 ± 7.05 | HAM-D Remission [12]: 18/56 (32.1%) | HAM-D Response [12]: 30/56 (53.6%) | HAM-D total score, Mean % CFB ± SD [12]: −52.9 ± 28.48% | HAM-D total score, Mean CFB ± SD [12]: −15.1 ± 8.23 | HAM-D Remission [13]: 8/10 (80%) | HAM-D Response [13]: 8/10 (80%) | HAM-D total score, Mean % CFB ± SD [13]: −74.2 ± 34.34% | HAM-D total score, Mean CFB ± SD [13]: −21.0 ± 10.12 | HAM-D Remission (baseline HAM-D score ≥26, Study Period 1, Table 3: 30 mg Cohort (N = 327), Table 19 head: Low Dose Cohort (N = 327), Day 15): 113 (36.7%) and 113/308 (36.7%) | HAM-D Remission (baseline HAM-D score ≥26, Study Period 1, Table 19: Low Dose Cohort (N = 327), Day 8): 49/319 (15.4%) | HAM-D Remission (baseline HAM-D score ≥26, Study Period 1, Table 19: Low Dose Cohort (N = 327), Day 28): 94/305 (30.8%) | HAM-D Remission (baseline HAM-D score ≥26, Study Period 1, Table 19: Low Dose Cohort (N = 327), Day 70): 43/170 (25.3%) | HAM-D Remission (baseline HAM-D score ≥26, Study Period 1, Table 19: Low Dose Cohort (N = 327), Day 126): 37/82 (45.1%)

— US20240245711A1, “A 19-NOR C3,3-DISUBSTITUTED C21-N-PYRAZOLYL STEROID FOR THE TREATMENT OF MAJOR DEPRESSIVE DISORDER” (Sage Therapeutics, Inc., priority 2021, published 2024)
